Marks after values point to notes of the source that are not given here.
What was measured:
TAAR1 receptor = molecular target: T1, TAAR1 receptor (Homo sapiens, UniProt Q96RJ0); experiment: Effect on cAMP content in cells which stably express TAAR1 receptor; type: cell-based
T1 construct: expressed in transfected cells
T1 sequence (Q96RJ0 1-339): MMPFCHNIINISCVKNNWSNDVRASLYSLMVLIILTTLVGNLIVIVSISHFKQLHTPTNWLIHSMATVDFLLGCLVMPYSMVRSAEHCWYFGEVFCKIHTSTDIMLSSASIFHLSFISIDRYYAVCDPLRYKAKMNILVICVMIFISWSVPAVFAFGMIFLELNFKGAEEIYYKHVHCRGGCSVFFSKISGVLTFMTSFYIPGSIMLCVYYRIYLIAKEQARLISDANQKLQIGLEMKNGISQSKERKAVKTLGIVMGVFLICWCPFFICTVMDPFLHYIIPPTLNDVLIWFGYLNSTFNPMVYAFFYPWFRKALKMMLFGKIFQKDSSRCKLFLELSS
Description: Test Example1. Determination of the effect of the present compound on cAMP content in cells which stably express TAAR1 receptor
Determination of the activation effect of compounds on TAAR1 receptors.
• 1) Preparation of experimental buffer: 1*HBSS+20 mM HEPES+0.1% BSA+500 μM IBMX. • 2) Complete medium: • Ham's F12K+10% Fetal Bovine Serum+1*Penicillin-Streptomycin+200 μg/mL Hygromycin B for CHO • DMEM+10% Fetal Bovine Serum+1*Penicillin-Streptomycin+200 μg/mL Hygromycin B for HEK293 • 3) TAAR1 cell line was cultured in complete medium at 37° C. and 5% CO2; After TrypLE digestion, the cells were resuspended in the experimental buffer and seeded into a 384 cell culture plate with a density of 8000 cells/15 ul/well. • 4) The compound was diluted with experimental buffer and added 5 μL to each well to culture at 37° C. for 30 minutes. • 5) cAMP-d2 and Anti cAMP Eu3+ were freeze thaw, and diluted 20 times with lysis buffer; 10 μL cAMP-d2 was added to the experimental well, and then 10 μL Anti cAMP Eu3+ was added into the experimental well; the reaction plate was centrifuged at 200 g for 30 seconds at room temperature, and stand at 25° C. for 1 hour; data was collected by Envision.
[formula] • 5) EC50 of compounds was calculated using GraphPad nonlinear fitting formula:
[formula] • X: Log value of the compound concentration; Y: Activation %

[1] = tested on: C57BL/6 mice, high spontaneous activity induced by phencyclidine (PCP); experiment: High spontaneous activity model of mice induced by phencyclidine (PCP); type: in vivo; settings: 60 minutes after modeling
Excerpt: Test Example 2. Pharmacodynamic Evaluation of the Present Compounds in Mice Model of High Spontaneous Activity Induced by Phencyclidine (PCP)
The purpose of the experiment is to evaluate the efficacy of compounds in a high spontaneous activity model of C57BL/6 mice induced by phencyclidine (PCP) using the spontaneous activity method.
C57BL/6 mice, provided by Shanghai Lingchang Biotechnology Co., Ltd., male, 6-8 weeks, 20-24 g, 36 mice.
The day before the experimental test, the animals were placed in the laboratory and acclimated for 8 hours.
On the day of adaptation, the animals were randomly grouped according to their weight.
The animals were weithed and treated with solvent control (20% HP-3-CD), compounds of the present invention (oral administration) respectively. 30 minutes later, modeling (intraperitoneal administration) was performed, and the animals were given physiological saline or phencyclidine, with dosage volume of 10 mL/kg.
After the administration, the animals were placed in observation box and the spontaneous activity was detected for 30 minutes. The moving distance (meters) of the animals in the observation box was counted every 5 minutes.
After 30 minutes, the animals were taken out for modeling and then placed in the observation box to test their spontaneous activity for 60 minutes. The moving distance (meters) of the animals in the observation box was counted every 5 minutes.
Excel software was used to collect data. A Two-Way ANOVA or One-Way ANOVA was conducted used Prism (Graph pad software, Inc.) software. p<0.05 was considered significant difference.

[2] = Pharmacokinetic assay of Balb/c mice, plasma and brain, oral; type: in vivo; settings: male, mouse, p.o. 5 mg/kg
Description: Test Example 3. Pharmacokinetic Assay of Balb/c Mice
Balb/c Mice were used as test animals. The pharmacokinetic behavior of the compounds of the present invention was studied in the plasma and brain of mice administered orally at the dose of 5 mg/kg.
Balb/c Mice, male, Shanghai Jiesijie Experimental Animal Co., Ltd., animal production license number (SCXK (Shanghai) 2013-0006 N0.311620400001794).
After fasting overnight, 24 male Balb/c mice were administered p.o. at a dose of 5 mg/kg and an administration volume of 10 mL/kg, respectively.
Drug formulation for oral administration: 0.5% CMC-Na (1% Tween 80).
After CO2 euthanasia of experimental animals, heart blood and brain tissue were collected at 0.25 h, 0.5 h, 1 h, 2 h, 4 h, 6 h, 8 h, and 24 h after administration. The blood was placed in EDTA-2K tubes and centrifuged at 4° C. and 6000 rpm for 6 minutes to separate plasma. The brain tissue was washed with pre-cooled PBS, dried, weighed, and stored at −80° C. The animals were feed 4 hours after administration.
1) 160 μL of acetonitrile was added to 40 μL of the plasma sample for precipitation, and then the mixture was centrifuged at 3500×g for 5-20 min.
2) 100 μL of the supernatant was taken to analyze the concentration of the test compound by LC/MS/MS.
• Liquid chromatography condition: Shimadzu LC-20AD pump • Mass spectrometry condition: AB Sciex API 4000 mass spectrometer • Chromatographic column: phenomenex Gemiu 5 μm C18 50×4.6 mm • Mobile phase: Eluent A was 0.10% formic acid in water, and Eluent B was acetonitrile • Flow rate: […] • Elution time: 0-4.0 minutes, the eluent is as follows:
The main pharmacokinetic parameters were calculated using WinNonlin8.1, and the results of the pharmacokinetic experiments in mouse are shown in the table below.

[3] = compound 1 mg/kg oral + PCP 5 mg/kg i.p.
[4] = compound 3 mg/kg oral + PCP 5 mg/kg i.p.

Row | Structure (SMILES) | EC50 (TAAR1 receptor) | Total distance (m, Mean ± SEM) 60 minutes [1, 3] | Total distance (m, Mean ± SEM) 60 minutes [1, 4] | AUC(0-t) ([2]; Brain) | Cmax ([2]; Brain) | Tmax ([2]; Brain) | AUC(0-t) ([2]; Plasma) | Cmax ([2]; Plasma) | Tmax ([2]; Plasma) | half-life ([2]; Plasma) | half-life ([2]; Brain) | Total distance (m, Mean ± SEM) 60 minutes ([1]; compound 10 mg/kg oral + PCP 5 mg/kg i.p.)
1 | [2H]C1([2H])CO[C@@H](c2ccc(F)cn2)CN1 (single isomer, unassigned) [Example 17-2, 2-(5-fluoropyridin-2-yl)morpholin-5,5-d2] | 8.3 nM | 140.1*** m | 114.1*** m | 7500 ng·h/mL | 3160 ng/mL | 30 min | 2630 ng·h/mL | 1450 ng/mL | 15 min | 78 min | – | –
2 | [2H]C1([2H])COC(c2cccc(C)n2)CN1 (single isomer, unassigned) [Example 10-2, 2-(6-Methylpyridin-2-yl)morpholin-5,5-d2] | 5.4 nM | – | 152.6*** m | 12500 ng·h/mL | 3540 ng/mL | 30 min | 5430 ng·h/mL | 1320 ng/mL | 15 min | 144 min | 150 min | –
3 | [2H]C1([2H])CO[C@H](c2ccc(F)cc2)CN1 (single isomer, unassigned) [Example 33-1, 2-(4-Fluorophenyl)morpholin-5,5-d2] | 7.9 nM | 136.4*** m | 126.3*** m | 15300 ng·h/mL | 8360 ng/mL | 15 min | 5030 ng·h/mL | 1970 ng/mL | 15 min | 192 min | 192 min | 83.23*** m
